This is an account of results in US20260083735A1, “ABHD6 ANTAGONIST” (ONO PHARMACEUTICAL CO., LTD., priority 2022, published 2026).

What is called pIC50 is −log10 of the IC50, conventionally taken in molar units.

pIC50: −log10 of the molar value. Where only a bound is given, the exact number is not on record here.

Assay [1] addresses T1, recombinant human ABHD6 (33-337) (Homo sapiens, UniProt Q9BV23).
T1 construct: recombinant human ABHD6 (33-337); GST; made in house; host or cells: E. coli
T1 sequence (Q9BV23 33-337): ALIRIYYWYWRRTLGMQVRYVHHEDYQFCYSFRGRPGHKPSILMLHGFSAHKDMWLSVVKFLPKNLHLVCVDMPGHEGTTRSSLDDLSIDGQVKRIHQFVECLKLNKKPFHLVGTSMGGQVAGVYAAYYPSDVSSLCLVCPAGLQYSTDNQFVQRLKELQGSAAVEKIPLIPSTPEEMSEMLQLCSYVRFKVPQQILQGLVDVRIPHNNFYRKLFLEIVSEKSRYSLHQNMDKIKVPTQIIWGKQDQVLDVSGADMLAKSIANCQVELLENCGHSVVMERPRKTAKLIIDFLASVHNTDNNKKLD
Briefly: Evaluation of ABHD6 enzyme inhibitory activity (arachidonic acid production from 1-arachidonoyl glycerol, RapidFire-MS). It counts as biochemical. The following applies: recombinant human GST-tagged ABHD6 (33-337), substrate 1-arachidonoyl glycerol 10 μmol/L, 1 hour, room temperature. On the procedure:
The recombinant human ABHD6 (33-337) was a GST-tagged ABHD6, and one which was expressed in E. coli, then purified with a Glutathione-Sepharose 4B resin, and then concentrated was used. The enzyme reaction was carried out at room temperature using a 384-well microplate made of polypropylene, and wells to which no enzyme was added were designated as a blank group.
One hour after the start of the enzyme reaction, methanol containing, as an internal standard substance, arachidonic acid-d8 (Cayman Chemical) and 1% formic acid was added to stop enzymatic reaction. The upper part of the enzyme reaction plate was sealed with aluminum, and centrifugation was performed at 560 g for 5 minutes at room temperature. Then, arachidonic acid as an enzyme reaction product and arachidonic acid-d8 as the internal standard substance were quantified with RapidFire (registered trademark)-Mass Spectrometry system.

The target in the next assay is T2, human ABHD6 (Homo sapiens, UniProt Q9BV23).
T2 construct: expressed in transfected cells; host or cells: HEK293
T2 sequence (Q9BV23 1-337): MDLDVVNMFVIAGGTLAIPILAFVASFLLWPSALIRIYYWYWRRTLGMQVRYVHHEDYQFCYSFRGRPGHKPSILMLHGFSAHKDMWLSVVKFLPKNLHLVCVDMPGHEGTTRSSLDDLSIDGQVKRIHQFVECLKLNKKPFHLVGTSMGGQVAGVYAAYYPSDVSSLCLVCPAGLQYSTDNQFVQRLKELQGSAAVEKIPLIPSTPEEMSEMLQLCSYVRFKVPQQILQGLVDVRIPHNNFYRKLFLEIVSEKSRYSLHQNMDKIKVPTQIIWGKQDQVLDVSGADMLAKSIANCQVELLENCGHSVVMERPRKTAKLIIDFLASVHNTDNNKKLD
In words: Measurement of binding affinity for human ABHD6 (BRET, HEK293 cells expressing NanoLuc-human ABHD6 fusion protein). The following applies: fluorescent probe 100 nmol/L. How it is done:
The binding affinity of the test compound for human ABHD6 was measured using bioluminescence resonance energy transfer (hereinafter, abbreviated as BRET) as an index. The bioluminescence resonance energy transfer is induced by the proximity of a probe molecule and a NanoLuc-human ABHD6 fusion protein, which is caused by allowing a fluorescent probe molecule and a test compound to act in a competitive manner using HEK293 cells forcibly expressing the NanoLuc-human ABHD6 fusion protein.
The test compound and the compound described in Example 2 as a control substance were each dissolved in dimethyl sulfoxide (DMSO) to prepare a 10 mmol/L solution. The prepared 10 mmol/L solution was thawed at the time of use, serially diluted with DMSO, and subjected to an experiment.
HEK293 cells expressing a NanoLuc-human ABHD6 fusion protein were statically cultured at 37° C. in the presence of 5% CO2 using inactivated (56° C., 30 min) 9.8 vol % non-dialyzed-FBS (containing 0.5 vol % GENETICIN and 1% penicillin-streptomycin). The subculture was performed by the following method.
The culture medium was removed, and the cells were washed once with phosphate buffered saline without Ca^2+ and Mg^2+. An appropriate amount of trypsin-EDTA was added, and the cells were incubated at room temperature. After the cells were detached, a culture medium in a volume 10-fold the volume of trypsin-EDTA (0.05%) was added to stop an enzyme reaction. The cells were collected in a centrifuge tube, and centrifuged at room temperature for 3 minutes at 120 g, and the supernatant was removed. The cells were suspended in an appropriate amount of culture medium and seeded in a culture flask.
HEK293 cells expressing a NanoLuc-human ABHD6 fusion protein were prepared, and then cryopreserved so as to be 5.0×10^6 cells/mL/vial in CELLBANKER2, and the cells were subjected to an experiment. HBSS (+) containing 20 mmol/L HEPES (pH 7.3) and 0.1% BSA was prepared and used as an assay buffer. The cells were thawed and suspended in the assay buffer to prepare a cell suspension of 2×10^5 cells/mL. […] The plate was allowed to stand at 37° C. for 30 minutes in the presence of 5% CO2. Then, a probe molecule (10 mmol/L in DMSO) having a fluorophore was diluted with the assay buffer so as to have a final concentration of 100 nmol/L, and added to the assay plate in an amount of 15 μL each. Further, this was allowed to stand at 37° C. for 30 minutes in the presence of 5% CO2. Then, a Nano-Glo (registered trademark) Vivazine (trademark) substrate (Promega Corporation) was diluted with the assay buffer according to the method described in the protocol, and added to the assay plate in an amount of 10 μL each, and this was allowed to stand at room temperature for 1 hour. Thereafter, the luminescence and fluorescence intensity were measured using a GloMax (registered trademark) discover system. The ratio between the emission intensity through the 450 nm bandpass filter and the fluorescence intensity through the 600 nm longpass filter was defined as the measured value of each sample. […] The measured value of the group not containing the compound was defined as 0% inhibition. The IC50 value of the test compound was determined from the measured value at each test compound concentration.
Background: In BRET a luciferase serves as donor, and the signal depends on an acceptor being close.

Turning to `Cc1ccc(C(=O)N2C[C@@H]3CC[C@@H](Oc4ccc(Br)nn4)[C@@H]3C2)s1` [Example 1-1, [(3aS,4R,6aR)-4-[(6-Bromo-3-pyridazinyl)oxy]hexahydrocyclopenta[c]pyrrol-2(1H)-yl](5-methyl-2-thienyl)methanone], the pIC50 was 9.00 in assay [1] and 7.96 on human ABHD6.

Turning to `O=C(c1cc2nn(C3CC3)cc2s1)N1C[C@@H]2CC[C@@H](Oc3ccc(Br)nn3)[C@@H]2C1` [Example 1-4, [(3aS,4R,6aR)-4-[(6-Bromo-3-pyridazinyl)oxy]hexahydrocyclopenta[c]pyrrol-2(1H)-yl](2-cyclopropyl-2H-thieno[3,2-c]pyrazol-5-yl)methanone], the pIC50 in assay [1] is over 9.00; on human ABHD6 it was 8.40.

With `O=C(c1ccc(C(F)F)s1)N1C[C@@H]2CC[C@@H](Oc3ccc(Br)nn3)[C@@H]2C1` [Example 1-7, [(3aS,4R,6aR)-4-[(6-Bromo-3-pyridazinyl)oxy]hexahydrocyclopenta[c]pyrrol-2(1H)-yl][5-(difluoromethyl)-2-thienyl]methanone], the values for the pIC50 (in assay [1]; on human ABHD6) were over 9.00 and 7.70, respectively.

With `Cn1ncc2cc(C(=O)N3C[C@@H]4CC[C@@H](Oc5ccc(Br)nn5)[C@@H]4C3)sc21` [Example 1-10, [(3aS,4R,6aR)-4-[(6-Bromo-3-pyridazinyl)oxy]hexahydrocyclopenta[c]pyrrol-2(1H)-yl](1-methyl-1H-thieno[2,3-c]pyrazol-5-yl)methanone], the pIC50 in assay [1] is over 9.00; on human ABHD6, 8.40.

Consider `COC(=O)N1CCc2sc(C(=O)N3C[C@@H]4CC[C@@H](Oc5ccc(Br)nn5)[C@@H]4C3)cc2C1` [Example 1-13], for which the pIC50 was over 9.00 in assay [1] and 8.30 on human ABHD6.

Take `O=C(c1ccc(OCCF)s1)N1C[C@@H]2CC[C@@H](Oc3ccc(Br)nn3)[C@@H]2C1` [Example 1-19, [(3aS,4R,6aR)-4-[(6-Bromo-3-pyridazinyl)oxy]hexahydrocyclopenta[c]pyrrol-2(1H)-yl][5-(2-fluoroethoxy)-2-thienyl]methanone]: the pIC50 in assay [1] was over 9.00; at human ABHD6, 8.00.

Turning to `O=C(c1cc2c(s1)CCOC2)N1CC2CCC(Oc3nnc(Cl)c4ccsc34)C2C1` (stereo not shown) [Example 2-3, {4-[(4-Chlorothieno[2,3-d]pyridazin-7-yl)oxy]hexahydrocyclopenta[c]pyrrol-2(1H)-yl}(6,7-dihydro-4H-thieno[3,2-c]pyran-2-yl)methanone], the pIC50 in assay [1] is 9.00; on human ABHD6, 8.05.

Consider `COc1cc(Cl)nnc1O[C@@H]1CC[C@H]2CN(C(=O)c3cc4c(s3)CCOC4)C[C@H]21` [Example 2-5, [(3aS,4R,6aR)-4-[(6-Chloro-4-methoxy-3-pyridazinyl)oxy]hexahydrocyclopenta[c]pyrrol-2(1H)-yl](6,7-dihydro-4H-thieno[3,2-c]pyran-2-yl)methanone], for which the pIC50 was 8.70 in assay [1] and 8.05 at human ABHD6.

Regarding `O=C(c1cc2c(s1)CCOC2)N1C[C@@H]2CC3(CC3)[C@@H](Oc3ccc(Br)nn3)[C@@H]2C1` [Example 4, [(3aS,4S,6aR)-4-[(6-Bromo-3-pyridazinyl)oxy]tetrahydro-1H-spiro[cyclopenta[c]pyrrole-5,1′-cyclopropan]-2(3H)-yl](6,7-dihydro-4H-thieno[3,2-c]pyran-2-yl)methanone], the values for the pIC50 (in assay [1]; on human ABHD6) were over 9.00 and 9.00, respectively.

For the compound `O=C(c1cc2c(s1)CCOC2)N1C[C@@H]2CC[C@@H](Oc3ccc(Br)nn3)[C@]2(O)C1` [Example 7, [(3aR,4R,6aS)-4-[(6-Bromo-3-pyridazinyl)oxy]-3a-hydroxyhexahydrocyclopenta[c]pyrrol-2(1H)-yl](6,7-dihydro-4H-thieno[3,2-c]pyran-2-yl)methanone], the pIC50 is 8.70 in assay [1] and 8.52 on human ABHD6.

Consider `O=C(c1cc2c(s1)CCOC2)N1C[C@@H]2C[C@H](F)[C@@H](Oc3ccc(Br)nn3)[C@@H]2C1` [Example 9, [(3aS,4S,5S,6aR)-4-[(6-Bromo-3-pyridazinyl)oxy]-5-fluorohexahydrocyclopenta[c]pyrrol-2(1H)-yl](6,7-dihydro-4H-thieno[3,2-c]pyran-2-yl)methanone], for which the pIC50 in assay [1] is over 9.00; at human ABHD6 it was 8.70.
